These results are taken from doi:10.1101/2021.10.07.463234v2 (biorxiv, 2021).

Where a name gives a salt, the structure may show the parent alone.

For one test, the target named is SARS-CoV-2 Mac1 (Severe acute respiratory syndrome coronavirus 2, UniProt P0DTD1). As to the kind of experiment: biochemical. Particulars: 100 µM; inhibitor.
As for `CCC(=O)NS(=O)(=O)c1ccc(-c2c(-c3ccccc3)noc2C)cc1` [Parecoxib Sodium], the %inhibition (commonly how much of the control response was suppressed) was 8.572%.

Take `CN(C)C/C=C/C(=O)Nc1cc2c(Nc3ccc(F)c(Cl)c3)ncnc2cc1O[C@H]1CCOC1` [Afatinib (BIBW2992)]: the “%inhibition” value came to 0.3349%.

On to `COc1ccc2cc3[n+](cc2c1OC)CCc1cc2c(cc1-3)OCO2` [Berberine Sulfate], for which the “%inhibition” value is listed as 0%.

Consider `C[C@H]1C[C@H]2[C@@H]3CCC4=CC(=O)C=C[C@]4(C)[C@@]3(F)[C@@H](O)C[C@]2(C)[C@@]1(O)C(=O)CO` [Betamethasone], for which the “%inhibition” value is reported as 1.437%.

Turning to `Fc1ccc([C@@H]2CCNC[C@H]2COc2ccc3c(c2)OCO3)cc1` [Paroxetine mesylate], the “%inhibition” value is listed as 0%.

`COCCCN1CCC(NC(=O)c2cc(Cl)c(N)c3c2OCC3)CC1` [Prucalopride Succinate]: the “%inhibition” value was 23.93%.

Take `Cc1c(-c2ccc(O)cc2)n(Cc2ccc(OCCN3CCCCCC3)cc2)c2ccc(O)cc12` [Bazedoxifene Acetate]: the “%inhibition” value is 3.518%.

Take `Nc1c2c(nc3ccccc13)CCCC2` [Tacrine hydrochloride hydrate]: the “%inhibition” value came to 12.09%.

As to `CNCC[C@H](Oc1cccc2ccccc12)c1cccs1` [Duloxetine], the “%inhibition” value came to 8.877%.

Staying with this test, now noted: read-out: %inhibition.
Consider `O=C(Nc1cccc2c(=O)cc(-c3nnn[nH]3)oc12)c1ccc(OCCCCc2ccccc2)cc1` [Pranlukast], for which the inhibition (usually the relative decrease from the control value, in per cent) at 100 µM stood at 4.22%.

As to `Cc1oncc1C(=O)Nc1ccc(C(F)(F)F)cc1` [Leflunomide], the inhibition at 100 µM came to 22.5%.

On to `CC(C)(C#N)c1cc(Cn2cncn2)cc(C(C)(C)C#N)c1` [Anastrozole], for which the inhibition at 100 µM is 10.3%.

For `CC(C)NC[C@@H](O)COc1ccc(CC(N)=O)cc1` [(R)-(+)-Atenolol HCl], the inhibition at 100 µM amounted to 9.19%.

In the case of `CNC(=O)c1ccc2cc([C@@]3(O)CCn4cncc43)ccc2c1` [TAK-700 (Orteronel)], the inhibition at 100 µM worked out at 0%.

As for `CCCN1C[C@H](CSC)C[C@@H]2c3cccc4[nH]cc(c34)C[C@H]21` [Pergolide Mesylate], the inhibition at 100 µM worked out at 7.58%.

Turning to `N=C(N)NCCC[C@@H](NC(=O)[C@@H]1CCCN1C(=O)[C@@H]1CSSCCC(=O)N[C@@H](Cc2ccc(O)cc2)C(=O)N[C@@H](Cc2ccccc2)C(=O)N[C@@H](CCC(N)=O)C(=O)N[C@@H](CC(N)=O)C(=O)N1)C(=O)NCC(N)=O` [Desmopressin Acetate], the inhibition at 100 µM came to 8.25%.

With `CCCCc1ncc(/C=C(\Cc2cccs2)C(=O)O)n1Cc1ccc(C(=O)O)cc1` [Eprosartan Mesylate], the inhibition at 100 µM came out at 26.7%.

With `CCCc1nc(C)c2c(O)nc(-c3cc(S(=O)(=O)N4CCN(CC)CC4)ccc3OCC)nn12` [Vardenafil HCl Trihydrate], the inhibition at 100 µM was 3.9%.

Turning to `COc1nc(N)nc2c1ncn2[C@@H]1O[C@H](CO)[C@@H](O)[C@@H]1O` [Nelarabine], the inhibition at 100 µM came out at 50.5%.

On to `N#CC1(c2ccc(NC(=O)c3cccnc3NCc3ccncc3)cc2)CCCC1` [Apatinib?mesylate], for which the inhibition at 100 µM was 0%.

Take `CNC[C@H](O)c1ccc(O)c(O)c1` [Epinephrine bitartrate]: the inhibition at 100 µM worked out at 10.7%.

On to `NC12CC3CC(CC(C3)C1)C2` [Amantadine HCl], for which the inhibition at 100 µM was 0%.

As for `CNC[C@H](O)[C@@H](O)[C@H](O)[C@H](O)CO` [Meglumine], the inhibition at 100 µM turned out to be 15.6%.

For the molecule `CCn1cc(C(=O)O)c(=O)c2cnc(N3CCCC3)nc21` [Piromidic Acid], the inhibition at 100 µM turned out to be 10.1%.

With `CN1CCC[C@@H]1Cc1c[nH]c2ccc(CCS(=O)(=O)c3ccccc3)cc12` [Eletriptan HBr], the inhibition at 100 µM was 0%.

With `C[C@]12C=CC(=O)C=C1CC[C@@H]1[C@@H]2C(=O)C[C@@]2(C)[C@H]1CC[C@]2(O)C(=O)CO` [Prednisone], the inhibition at 100 µM was found to be 0%.

Take `CCCCCCCCC(=O)NCc1ccc(O)c(OC)c1` [Nonivamide]: the inhibition at 100 µM came out at 1.16%.

As for `CN(C)CCOc1ccc(/C(=C(/CCCl)c2ccccc2)c2ccccc2)cc1` [Toremifene Citrate], the inhibition at 100 µM is 21.7%.

As for `CN1CCC(OC(c2ccccc2)c2ccccc2)CC1` [Diphenylpyraline HCl], the inhibition at 100 µM stood at 0%.

Turning to `CN[C@@H]1[C@H](O[C@H]2[C@H](O[C@H]3[C@H](O)[C@@H](O)[C@H](N=C(N)N)[C@@H](O)[C@@H]3N=C(N)N)O[C@@H](C)[C@]2(O)C=O)O[C@@H](CO)[C@H](O)[C@H]1O` [Streptomycin sulfate], the inhibition at 100 µM worked out at 0%.

With `O=C(O)CCCN1CCC(O[C@@H](c2ccc(Cl)cc2)c2ccccn2)CC1` [Bepotastine Besilate], the inhibition at 100 µM worked out at 15%.

For the molecule `CCCCC(CC)COC(=O)C=Cc1ccc(OC)cc1` (stereo not shown) [Octinoxate], the inhibition at 100 µM came out at 0%.

Turning to `C#C[C@]1(O)C=C[C@H]2[C@@H]3CCC4=CC(=O)CC[C@@H]4[C@H]3CC[C@@]21CC` [Gestodene], the inhibition at 100 µM stood at 0%.

For `Oc1cc(O)c(Cl)cn1` [Gimeracil], the inhibition at 100 µM was determined as 0%.

For the molecule `CCCCCCCCCCCC[N+](C)(C)CCOc1ccccc1` [Domiphen Bromide], the inhibition at 100 µM came to 0.79%.

As to `CC(=O)NO` [Acetohydroxamic acid], the inhibition at 100 µM was determined as 0%.

As for `COc1cc2nc(N3CCN(C(=O)c4ccco4)CC3)nc(N)c2cc1OC` [Prazosin HCl], the inhibition at 100 µM was found to be 17.1%.

Regarding `C=C[C@]1(C)C[C@@H](OC(=O)CSC(C)(C)CNC(=O)[C@H](N)C(C)C)[C@]2(C)[C@H](C)CC[C@]3(CCC(=O)[C@H]32)[C@@H](C)[C@@H]1O` [Valnemulin HCl], the inhibition at 100 µM is 23.1%.

Turning to `O=c1oc2c(O)c(O)cc3c(=O)oc4c(O)c(O)cc1c4c23` [Ellagic acid], the inhibition at 100 µM amounted to 33.1%.

On to `Cc1ccc(C(=O)Nc2ccc(CN3CCN(C)CC3)c(C(F)(F)F)c2)cc1C#Cc1cnc2cccnn12` [Ponatinib (AP24534)], for which the inhibition at 100 µM was found to be 5.09%.

With `O=c1[nH]c(=O)n([C@H]2C[C@H](O)[C@@H](CO)O2)cc1/C=C/Br` [Brivudine], the inhibition at 100 µM was determined as 17.8%.

Turning to `CCC(C)n1ncn(-c2ccc(N3CCN(c4ccc(OC[C@H]5CO[C@](Cn6cncn6)(c6ccc(Cl)cc6Cl)O5)cc4)CC3)cc2)c1=O` (mixture of isomers) [Itraconazole], the inhibition at 100 µM was found to be 1.14%.

On to `CC1=C(/C=C/C(C)=C/C=C/C(C)=C/C(=O)O)C(C)(C)CCC1` [Tretinoin], for which the inhibition at 100 µM worked out at 0%.

`CC(O)Cn1cnc2c1c(=O)n(C)c(=O)n2C` (stereo not shown) [Proxyphylline]: the inhibition at 100 µM is 1.62%.

With `COc1cc(C(=O)O)ccc1NC(=O)[C@@H]1N[C@@H](CC(C)(C)C)[C@](C#N)(c2ccc(Cl)cc2F)[C@H]1c1cccc(Cl)c1F` [Idasanutlin (RG-7388)], the inhibition at 100 µM was found to be 0%.

Turning to `CN1C[C@@H]2c3ccccc3Oc3ccc(Cl)cc3[C@H]2C1` (racemic) [Asenapine maleate], the inhibition at 100 µM came to 0%.

Take `O=C(O)CCn1c2c(c3ccccc31)C[C@H](NS(=O)(=O)c1ccc(F)cc1)CC2` [Ramatroban]: the inhibition at 100 µM was determined as 4.2%.

Turning to `CCOc1ccccc1O[C@H](c1ccccc1)[C@H]1CNCCO1` (racemic) [Reboxetine mesylate], the inhibition at 100 µM was 0%.

Turning to `CC(C)N(CCCCOCC(=O)NS(C)(=O)=O)c1cnc(-c2ccccc2)c(-c2ccccc2)n1` [Selexipag], the inhibition at 100 µM worked out at 0%.
